Experiment [1] deals with HB4a cell line transformed by over-expression of c-erbB-2. Kind of experiment: Cell proliferation assay, HB4a erbB-2. It counts as cell-based. As to conditions: Homo sapiens, 96 h, 4 days, methylene blue staining. The procedure: (§1) The cell proliferation assay uses an immortalised human breast epithelial cell line (HB4a) which has been transformed by over-expression of c-erbB-2. Growth of these cells in low serum is dependent upon the c-erbB-2 tyrosine kinase activity. […] Cells are plated at 3000/well in 96-well plates in […] medium and allowed to attach overnight. test compound is added in 0.1 ml medium, with a final concentration of 0.5% DMSO, and the plates incubated for 4 days at 37° C. The cells are then examined microscopically for evidence of morphological detransformation and cell mass is estimated by staining with methylene blue and measuring the absorbance at 620 nm. […] Activity against a range of naturally occurring EGFr or c-erbB-2 over-expressing human tumour cell lines (BT474-breast, HN5-head and neck, N87 gastric and Calu3-lung) is assessed with selected compounds by the same methodology.

In experiment [2] the test system is HN5-head and neck tumour cell line. Kind of experiment: Cell proliferation assay, HN5. It counts as cell-based. The note with it: Homo sapiens, 96 h, read-out: Cell Proliferation HN5 IC50. The procedure:
as §1

Experiment [3] deals with N87 gastric tumour cell line. Kind of experiment: Cell proliferation assay, N87. It counts as cell-based. As to conditions: Homo sapiens, 96 h; 4 days, methylene blue staining. The procedure: as §1
For experiment [4], the system named is Calu3-lung tumour cell line. Kind of experiment: Cell proliferation assay, Calu3. As to conditions: Homo sapiens, Calu-3, 96 h; 4 days, methylene blue staining. It counts as cell-based. The procedure: as §1
Experiment [5] deals with T1, EGFr isolated from solubilised A431 cell membranes (Homo sapiens, UniProt P00533).
T1 construct: EGFr isolated from solubilised A431 cell membranes; endogenous in cells; host or cells: A431 cells (solubilised membranes)
T1 sequence (P00533 25-1210): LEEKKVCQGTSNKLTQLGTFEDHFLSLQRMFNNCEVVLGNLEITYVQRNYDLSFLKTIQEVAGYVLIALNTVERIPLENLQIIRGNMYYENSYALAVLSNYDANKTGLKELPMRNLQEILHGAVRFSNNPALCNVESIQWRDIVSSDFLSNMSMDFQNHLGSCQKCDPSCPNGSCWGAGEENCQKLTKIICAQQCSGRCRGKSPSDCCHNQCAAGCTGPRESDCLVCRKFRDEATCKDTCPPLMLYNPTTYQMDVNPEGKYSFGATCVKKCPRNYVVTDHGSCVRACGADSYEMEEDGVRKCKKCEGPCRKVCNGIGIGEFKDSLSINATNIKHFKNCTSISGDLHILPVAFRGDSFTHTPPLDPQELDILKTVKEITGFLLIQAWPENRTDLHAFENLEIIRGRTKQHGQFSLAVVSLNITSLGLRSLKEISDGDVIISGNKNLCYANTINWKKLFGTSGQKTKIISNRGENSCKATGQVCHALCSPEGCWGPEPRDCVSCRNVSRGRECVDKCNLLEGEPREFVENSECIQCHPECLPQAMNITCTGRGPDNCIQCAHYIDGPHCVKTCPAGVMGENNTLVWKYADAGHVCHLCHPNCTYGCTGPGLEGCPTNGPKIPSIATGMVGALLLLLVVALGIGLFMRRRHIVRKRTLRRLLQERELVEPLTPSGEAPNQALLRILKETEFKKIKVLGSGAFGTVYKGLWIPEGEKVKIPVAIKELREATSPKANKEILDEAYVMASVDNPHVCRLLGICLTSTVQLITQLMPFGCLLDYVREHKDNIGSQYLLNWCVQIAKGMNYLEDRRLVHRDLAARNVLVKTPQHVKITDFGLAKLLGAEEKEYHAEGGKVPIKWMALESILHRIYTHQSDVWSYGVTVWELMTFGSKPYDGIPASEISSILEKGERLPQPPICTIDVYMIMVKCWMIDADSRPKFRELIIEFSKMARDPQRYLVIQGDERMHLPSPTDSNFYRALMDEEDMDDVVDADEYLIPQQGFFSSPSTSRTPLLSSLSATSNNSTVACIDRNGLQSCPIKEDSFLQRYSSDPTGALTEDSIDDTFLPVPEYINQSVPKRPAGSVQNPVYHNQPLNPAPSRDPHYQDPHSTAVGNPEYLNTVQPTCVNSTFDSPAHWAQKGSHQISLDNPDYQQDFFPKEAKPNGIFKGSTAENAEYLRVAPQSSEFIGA
Kind of experiment: Substrate phosphorylation assay, EGFr. It counts as biochemical. The note with it: 30 minutes, room temperature, ATP and peptide at Km. As to the method: (§2) The substrate phosphorylation assays use baculovirus expressed, recombinant constructs of the intracellular domains of c-erbB-2 and c-erbB4 that are constitutively active and EGFr isolated from solubilised A431 cell membranes. The method measures the ability of the isolated enzymes to catalyse the transfer of the γ-phosphate from ATP onto tyrosine residues in a biotinylated synthetic peptide (Biotin-GluGluGluGluTyrPheGluLeuVal). The enzyme is incubated for 30 minutes, at room temperature, with 10 mM […], ATP and peptide at Km concentrations, and test compound (diluted from a 5 mM stock in DMSO, final DMSO concentration is 2%) in 40 mM HEPES buffer, pH 7.4. The reaction is stopped by the addition of EDTA (final concentration 0.15 mM) and a sample is transferred to a streptavidin-coated 96-well plate. The plate is washed and the level of phosphotyrosine on the peptide is determined using a Europium-labelled antiphosphotyrosine antibody and quantified with a time-resolved fluorescence technique. The results are shown in Table 1 as the IC50 values in nM.

Experiment [6] deals with T2, c-erbB4 (baculovirus expressed, recombinant intracellular domain) (Homo sapiens, UniProt Q15303).
T2 construct: recombinant constructs of the intracellular domains of c-erbB-2 and c-erbB4 that are constitutively active; made in house
T2 sequence (Q15303 676-1308 limits assumed): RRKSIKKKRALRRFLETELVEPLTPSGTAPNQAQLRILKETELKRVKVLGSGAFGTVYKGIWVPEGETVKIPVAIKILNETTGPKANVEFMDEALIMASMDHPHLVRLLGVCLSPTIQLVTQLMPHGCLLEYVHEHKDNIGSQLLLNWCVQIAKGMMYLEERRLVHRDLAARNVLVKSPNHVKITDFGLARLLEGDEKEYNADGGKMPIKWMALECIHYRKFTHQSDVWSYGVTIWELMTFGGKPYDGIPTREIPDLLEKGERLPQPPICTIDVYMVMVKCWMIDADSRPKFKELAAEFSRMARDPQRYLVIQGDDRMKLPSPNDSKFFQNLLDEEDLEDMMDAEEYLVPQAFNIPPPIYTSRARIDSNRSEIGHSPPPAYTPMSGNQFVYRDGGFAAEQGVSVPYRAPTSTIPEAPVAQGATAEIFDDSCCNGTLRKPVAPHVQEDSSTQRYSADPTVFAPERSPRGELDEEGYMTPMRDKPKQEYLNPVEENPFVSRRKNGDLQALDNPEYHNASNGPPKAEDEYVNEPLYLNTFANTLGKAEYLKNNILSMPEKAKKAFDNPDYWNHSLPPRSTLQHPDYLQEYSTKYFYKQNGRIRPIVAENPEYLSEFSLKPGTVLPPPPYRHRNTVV
Kind of experiment: Substrate phosphorylation assay, c-erbB4. The format is biochemical. The note with it: 30 minutes, room temperature, ATP and peptide at Km; read-out: Substrate Phosphorylation erbB-4 IC50. As to the method:
as §2

The test system of experiment [7] is BT474-breast tumour cell line. Nature of the experiment: Cell proliferation assay, BT474. The format is cell-based. The note with it: Homo sapiens, BT-474, 96 h; 4 days, methylene blue staining. The procedure: as §1
For experiment [8], the system named is HB4a cell line transfected with ras. Nature of the experiment: Cell proliferation assay, HB4a ras. The format is cell-based. As to conditions: Homo sapiens, 96 h, 4 days, methylene blue staining, general toxicity comparison.
Experiment [9] concerns the target T3, c-erbB-2 (baculovirus expressed, recombinant intracellular domain) (Homo sapiens, UniProt P04626).
T3 construct: recombinant constructs of the intracellular domains of c-erbB-2 and c-erbB4 that are constitutively active; made in house
Kind of experiment: Substrate phosphorylation assay, c-erbB-2. The format is biochemical. As to conditions: 30 minutes, room temperature, ATP and peptide at Km. As to the method:
The substrate phosphorylation assays use baculovirus expressed, recombinant constructs of the intracellular domains of c-erbB-2 and c-erbB4 that are constitutively active and EGFr isolated from solubilised A431 cell membranes. […] The reaction is stopped by the addition of EDTA (final concentration 0.15 mM) and a sample is transferred to a streptavidin-coated 96-well plate. The plate is washed and the level of phosphotyrosine on the peptide is determined using a Europium-labelled antiphosphotyrosine antibody and quantified with a time-resolved fluorescence technique. The results are shown in Table 1 as the IC50 values in nM.

SMILES strings stand for the structures.

T3 sequence (P04626 676-1255 limits assumed): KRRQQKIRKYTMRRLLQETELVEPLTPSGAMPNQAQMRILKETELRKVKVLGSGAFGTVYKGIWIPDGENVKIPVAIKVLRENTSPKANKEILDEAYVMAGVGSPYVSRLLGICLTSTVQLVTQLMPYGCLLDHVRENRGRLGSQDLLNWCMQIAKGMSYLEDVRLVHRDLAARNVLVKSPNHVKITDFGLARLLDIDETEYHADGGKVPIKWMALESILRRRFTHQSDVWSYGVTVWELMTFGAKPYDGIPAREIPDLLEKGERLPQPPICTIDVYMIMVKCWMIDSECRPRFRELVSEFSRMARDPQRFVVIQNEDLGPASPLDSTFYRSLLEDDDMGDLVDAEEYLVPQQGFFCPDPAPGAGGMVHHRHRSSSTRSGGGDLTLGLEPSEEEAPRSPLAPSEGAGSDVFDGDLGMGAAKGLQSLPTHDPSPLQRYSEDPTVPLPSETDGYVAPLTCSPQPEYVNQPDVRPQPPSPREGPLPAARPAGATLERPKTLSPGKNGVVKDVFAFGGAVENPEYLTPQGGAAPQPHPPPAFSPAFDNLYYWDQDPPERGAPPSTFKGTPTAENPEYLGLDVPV

Regarding `CN(CC(N)=O)Cc1ccc(-c2cc3c(Nc4ccc(OCc5ccccc5)cc4)ncnc3cn2)o1` [Example 8, 2-((5-(4-(4-Benzyloxy-phenylamino)-pyrido[3,4-d]pyrimidin-6-yl)-furan-2-ylmethyl)-methylamino)-acetamide], the IC50 in experiment [1] worked out at 100 nM; in experiment [2], 350 nM; in experiment [3], 60 nM; in experiment [4], 340 nM; in experiment [5] it was 720 nM; in [6] it was 160 nM. Besides, the IC50 in [7] was 380 nM; in experiment [8], 41000 nM; in [9], 11 nM.

The values are drawn from patent US6207669A, “Bicyclic heteroaromatic compounds as protein tyrosine kinase inhibitors” (Glaxo Wellcome Inc., priority 1996, dated 2001).
